In brackets after ≈: the same amount, converted by molar mass. Where two headings read alike, the source gives them in different places.
What was measured:
[1] = biological target: T1, Mtb Eis (Mycobacterium tuberculosis, UniProt P9WFK7); assay type: biochemical; details: for mode of inhibition with respect to KAN: Michaelis-Menten analysis of KAN acetylation by Eis
[2] = biological target: AAC(3)-IV (Salmonella sp, UniProt P08988); assay type: biochemical; details: concentrations up to 200 μM
[3] = biological target: AAC(6’)-Ie/APH(2”)-Ia (Staphylococcus aureus, UniProt P0A0C1); experiment: Inhibitor selectivity, NEO acetylation assay; assay type: biochemical; details: concentrations up to 200 μM
Chain of AAC(6’)-Ie/APH(2”)-Ia (P0A0C1 whole entry): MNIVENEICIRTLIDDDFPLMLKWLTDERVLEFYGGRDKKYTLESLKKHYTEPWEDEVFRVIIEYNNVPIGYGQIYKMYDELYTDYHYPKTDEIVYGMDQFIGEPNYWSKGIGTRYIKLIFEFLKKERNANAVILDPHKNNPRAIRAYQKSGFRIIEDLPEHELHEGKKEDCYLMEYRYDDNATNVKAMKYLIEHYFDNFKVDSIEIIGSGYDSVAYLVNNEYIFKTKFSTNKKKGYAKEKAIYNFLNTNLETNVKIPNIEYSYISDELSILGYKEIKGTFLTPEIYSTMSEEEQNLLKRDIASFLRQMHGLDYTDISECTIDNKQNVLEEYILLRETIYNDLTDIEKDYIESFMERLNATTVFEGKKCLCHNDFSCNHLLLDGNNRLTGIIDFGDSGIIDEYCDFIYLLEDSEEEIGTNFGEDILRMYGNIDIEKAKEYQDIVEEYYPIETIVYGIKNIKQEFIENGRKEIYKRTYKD

[4] = biological target: T1, Mtb Eis; experiment: Eis acetylation assay; assay type: biochemical
[5] = biological target: AAC(2’)-Ic (Mycobacterium tuberculosis, UniProt P9WQG9); experiment: Inhibitor selectivity, NEO acetylation assay; assay type: biochemical; details: concentrations up to 200 μM
Chain of AAC(2’)-Ic (P9WQG9 whole entry): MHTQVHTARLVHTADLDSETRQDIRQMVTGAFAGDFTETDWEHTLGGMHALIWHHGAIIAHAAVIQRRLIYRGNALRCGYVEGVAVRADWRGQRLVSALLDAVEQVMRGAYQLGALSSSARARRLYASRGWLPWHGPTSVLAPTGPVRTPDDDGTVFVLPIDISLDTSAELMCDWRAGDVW

[6] = test system: Mtb mc^26230; experiment: MIC determination of compounds alone; assay type: cell-based, Mycobacterium tuberculosis; details: for MIC: Mycobacterium tuberculosis, read-out: MIC mc^26230; for MIC mc^26230: compound alone, duplicate
[7] = biological target: T1, Mtb Eis; experiment: Screening acetylation assay with NEO as substrate; assay type: biochemical; details: conditions of the original high-throughput assay; compound 20 μM, NEO 100 μM
[8] = with respect to KAN, global nonlinear regression fit
[9] = Eis 0.25 μM, KAN 100 μM, AcCoA 0.5 mM, Tris-HCl pH 8.0, triplicate

Chain of AAC(3)-IV (P08988 whole entry): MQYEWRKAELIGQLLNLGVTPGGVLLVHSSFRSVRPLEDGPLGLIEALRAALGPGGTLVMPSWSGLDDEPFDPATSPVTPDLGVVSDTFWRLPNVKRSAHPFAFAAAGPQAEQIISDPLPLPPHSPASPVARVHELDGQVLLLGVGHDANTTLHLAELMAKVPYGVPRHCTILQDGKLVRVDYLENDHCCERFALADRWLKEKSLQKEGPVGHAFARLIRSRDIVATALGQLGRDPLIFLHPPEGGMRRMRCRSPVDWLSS
T1 sequence (P9WFK7 whole entry): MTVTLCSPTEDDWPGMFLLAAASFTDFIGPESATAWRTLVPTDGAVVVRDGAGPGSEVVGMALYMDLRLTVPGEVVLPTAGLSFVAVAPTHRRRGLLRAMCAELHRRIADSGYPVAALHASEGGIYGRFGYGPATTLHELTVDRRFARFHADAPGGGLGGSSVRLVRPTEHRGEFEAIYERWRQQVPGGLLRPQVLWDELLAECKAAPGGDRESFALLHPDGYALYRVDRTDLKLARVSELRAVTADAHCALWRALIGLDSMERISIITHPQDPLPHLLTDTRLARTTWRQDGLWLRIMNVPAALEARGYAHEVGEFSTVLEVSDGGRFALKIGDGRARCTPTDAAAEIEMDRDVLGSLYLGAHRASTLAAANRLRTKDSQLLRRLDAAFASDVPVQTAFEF

Row | SMILES | Ki [1] | mode of inhibition with respect to KAN [1] | Ki,u (equilibrium constant for inhibitor binding to enzyme-substrate complex) [1, 8] | inhibition of NEO acetylation by AAC(3)-IV [2] | inhibition of NEO acetylation by AAC(6’)-Ie [3] | IC50 [4] | inhibition of NEO acetylation by AAC(2’)-Ic [5] | MIC [6] | MIC mc^26230 [6] | further results
1 | CN1CCCC(n2nc(Cc3ccc(Cl)cc3)c3ccccc3c2=O)CC1 (stereo not shown) [Azelastine (AZL), Azelastine] | 0.24 ± 0.05 µM | competitive | 0.9 ± 0.5 (p = 0.08) μM | not inhibited | not inhibited | 0.79 ± 0.08 µM | not inhibited | 32 µM (≈ 12.2 µg/mL) | – | –
2 | [H]/N=C(\N/C(=N/[H])NCCCCCCNC(=N)NC(=N)Nc1ccc(Cl)cc1)Nc1ccc(Cl)cc1 [Chlorhexidine (CHX), Chlorhexidine] | – | – | – | – | – | – | – | ≤ 0.03 µM | – | –
3 | CCN(CC)CCCC(C)Nc1ccnc2cc(Cl)ccc12 (stereo not shown) [Chloroquine (CHQ), Chloroquine] | 12.3 ± 2.7 µM | competitive | 35 ± 20 (p = 0.1) μM | not inhibited | not inhibited | 20 ± 2 µM | not inhibited | 64 µM (≈ 20.5 µg/mL) | – | –
4 | NC(N)=NN=Cc1ccc(Cl)cc1 [Compound 1] | – | competitive inhibition | – | – | – | – | – | – | > 64 µM | Ki ([1]; read-out: Ki (equilibrium constant for inhibitor binding to free enzyme), with respect to KAN, global nonlinear regression fit): 17 ± 2.4 µM; IC50 [4, 9]: 10 ± 3 µM; fold more potent than PRO as an Eis inhibitor ([4]; ratio of IC50 values vs PRO): 3 fold
5 | Fc1cccc(NN=Cc2ccc(Cl)cc2)c1 [Compound 2] | – | uncompetitive inhibition | 104 ± 8 µM | – | – | – | – | – | > 64 µM | IC50 [4, 9]: 160 ± 49 µM; IC50 fold higher than that of PRO ([4]; ratio of IC50 values vs PRO): 5 fold
6 | Fc1ccc(NN=Cc2ccc(Cl)cc2)cc1 [Compound 3] | – | – | – | – | – | – | – | – | > 64 µM | IC50 [4, 9]: > 200 µM; IC50 fold higher than that of PRO ([4]; ratio of IC50 values vs PRO): > 7 fold
7 | NNC(=O)c1ccncc1 [Isoniazid (INH), Isoniazid] | – | – | – | – | – | – | – | ≤ 3.6 µM | – | –
8 | NC[C@H]1O[C@H](O[C@H]2[C@H](O)[C@@H](O[C@H]3O[C@H](CO)[C@@H](O)[C@H](N)[C@H]3O)[C@H](N)C[C@@H]2N)[C@H](O)[C@@H](O)[C@@H]1O [Kanamycin (KAN), Kanamycin] | – | – | – | – | – | – | – | – | 0.17 µM (≈ 0.0824 µg/mL) | –
9 | OC(c1cc(C(F)(F)F)nc2c(C(F)(F)F)cccc12)C1CCCCN1 (stereo not shown) [Mefloquine (MEF), Mefloquine] | 7.2 ± 1.1 µM | – | 5.9 ± 1.3 (p = 0.0002) μM | not inhibited | not inhibited | 4.2 ± 0.8 µM | not inhibited | 16 µM (≈ 6.05 µg/mL) | – | –
10 | [H]/N=C(\N/C(=N/[H])Nc1ccc(Cl)cc1)NC(C)C [Proguanil (PRO), Proguanil] | 28 ± 10 µM | – | – | not inhibited | not inhibited | 30 ± 7 µM | not inhibited | > 64 µM | – | inhibition of NEO acetylation activity of Mtb Eis [7]: detectable inhibition
11 | COc1ccc(C(CN(C)C)C2(O)CCCCC2)cc1 (stereo not shown) [Venlafaxine (VEN), Venlafaxine] | – | – | – | – | – | 134 ± 21 µM | – | > 64 µM | – | inhibition of NEO acetylation activity of Mtb Eis [7]: detectable inhibition

— publication PMC9905294 (Biochemistry, 2023)
